Activity calls are given as the source filed them. The calls are words filed in the database; no cut-off is given here.
Experiments:
[1] = biological target: T1, Sigma intracellular receptor 2 (Rattus norvegicus, UniProt Q5U3Y7); experiment: Displacement of [3H]-DTG from sigma2 receptor in rat liver membranes in presence of (+)-pentazocine; format: cell membranes, Membrane
T1 sequence (Q5U3Y7 whole entry): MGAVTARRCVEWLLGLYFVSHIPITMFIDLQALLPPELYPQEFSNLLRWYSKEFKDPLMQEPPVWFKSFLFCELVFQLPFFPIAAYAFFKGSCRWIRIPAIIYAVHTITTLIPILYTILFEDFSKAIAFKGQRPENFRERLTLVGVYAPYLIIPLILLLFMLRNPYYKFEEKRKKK

[2] = biological target: C-8 sterol isomerase ERG2 (Saccharomyces cerevisiae S288c) (UniProt P32352); experiment: Inhibition of yeast sterol-delta8/7-isomerase at 50 uM
[3] = biological target: C-8 sterol isomerase ERG2 (Saccharomyces cerevisiae S288c) (UniProt P32352); experiment: Inhibition of yeast sterol-delta8/7-isomerase assessed as accumulation of cholesta-5,7-dien-3beta-ol at 1 uM
[4] = biological target: C-8 sterol isomerase ERG2 (Saccharomyces cerevisiae S288c) (UniProt P32352); experiment: Inhibition of yeast sterol-delta8/7-isomerase assessed as accumulation of cholesta-8,14-dien-3beta-ol at 50 uM
[5] = biological target: C-8 sterol isomerase ERG2 (Saccharomyces cerevisiae S288c) (UniProt P32352); experiment: Inhibition of yeast sterol-delta8/7-isomerase assessed as accumulation of cholesta-8,14-dien-3beta-ol at 1 uM
[6] = biological target: C-8 sterol isomerase ERG2 (Saccharomyces cerevisiae S288c) (UniProt P32352); experiment: Inhibition of yeast sterol-delta8/7-isomerase assessed as accumulation of cholesta-5,7-dien-3beta-ol at 50 uM
[7] = biological target: T1, Sigma intracellular receptor 2; experiment: Displacement of [3H]-DTG from sigma2 receptor in rat liver membranes after 120 mins by liquid scintillation counting; format: cell membranes, Membrane
[8] = Displacement of [3H]-(+)-MK 801 from PCP binding site of NMDA receptor in pig brain cortex membranes after 120 mins by liquid scintillation spectrometry; format: cell membranes, Sus scrofa
[9] = biological target: C-8 sterol isomerase ERG2 (Saccharomyces cerevisiae S288c) (UniProt P32352); experiment: Inhibition of yeast sterol-delta8/7-isomerase assessed as accumulation of cholesta-7-en-3beta-ol at 1 uM
[10] = biological target: C-8 sterol isomerase ERG2 (Saccharomyces cerevisiae S288c) (UniProt P32352); experiment: Inhibition of yeast sterol-delta8/7-isomerase assessed as accumulation of cholesta-7-en-3beta-ol at 50 uM
[11] = biological target: Sigma non-opioid intracellular receptor 1 (Cavia porcellus, UniProt Q60492); experiment: Displacement of [3H]-pentazocine from sigma1 receptor in guinea pig brain membranes after 120 mins by liquid scintillation counting; format: cell membranes, Membrane
[12] = biological target: C-8 sterol isomerase ERG2 (Saccharomyces cerevisiae S288c) (UniProt P32352); experiment: Inhibition of yeast sterol-delta8/7-isomerase assessed as accumulation of cholesta-8-en-3beta-ol at 50 uM
[13] = biological target: C-8 sterol isomerase ERG2 (Saccharomyces cerevisiae S288c) (UniProt P32352); experiment: Inhibition of yeast sterol-delta8/7-isomerase assessed as accumulation of cholesta-8-en-3beta-ol at 1 uM
[14] = species: Sus scrofa; experiment: Displacement of [3H]-(+)-MK 801 from PCP binding site of NMDA receptor in pig brain cortex membranes at 1 uM after 120 mins by liquid scintillation spectrometry; format: cell membranes
[15] = test system: HL-60; experiment: Inhibition of cholesteriol biosynthesis in human HL60 cells assessed as incorporation of 2-13C-acetate; format: functional, cell-based
[16] = biological target: C-8 sterol isomerase ERG2 (Saccharomyces cerevisiae S288c) (UniProt P32352); experiment: Inhibition of yeast sterol-delta8/7-isomerase at 1 uM

Sigma non-opioid intracellular receptor 1, sequence (Q60492 whole entry): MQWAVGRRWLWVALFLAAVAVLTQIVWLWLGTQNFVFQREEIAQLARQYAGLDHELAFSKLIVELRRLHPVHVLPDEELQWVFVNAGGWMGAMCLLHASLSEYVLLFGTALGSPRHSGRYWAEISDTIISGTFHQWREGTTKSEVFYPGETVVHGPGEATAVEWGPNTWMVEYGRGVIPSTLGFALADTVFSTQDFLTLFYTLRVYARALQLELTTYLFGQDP
C-8 sterol isomerase ERG2 (Saccharomyces cerevisiae S288c), sequence (P32352 whole entry, looked up): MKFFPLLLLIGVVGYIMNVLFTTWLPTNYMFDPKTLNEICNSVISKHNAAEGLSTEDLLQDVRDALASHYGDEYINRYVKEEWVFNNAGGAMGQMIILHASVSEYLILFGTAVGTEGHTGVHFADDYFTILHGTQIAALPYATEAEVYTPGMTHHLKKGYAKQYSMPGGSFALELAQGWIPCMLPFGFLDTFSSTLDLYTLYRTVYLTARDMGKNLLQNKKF

Compound	Ki [1]	inhibition [2]	inhibition [3]	inhibition [4]	inhibition [5]	inhibition [6]	Ki [7]	IC50 [8]	inhibition [9]	inhibition [10]	Ki [11]	inhibition [12]	inhibition [13]	inhibition [14]	IC50 [15]	inhibition [16]
COc1cccc2c1CCCC2CCCN1CCN(C2CCCCC2)CC1 (stereo unspecified)	0.34 nM															
c1ccc(C[C@H]2CN(Cc3ccccc3)CCCN2Cc2ccccc2)cc1		Active	Active	Active	Active	Active	> 1000 nM	> 1000 nM	Active	Active	71 nM	inactive	Active			
OCC(c1ccccc1)N1CCCN(Cc2ccccc2)[C@H](Cc2ccccc2)C1 (stereo partly specified)							> 1000 nM	1000 nM			27 nM			50%		
OC(CN1CCCN(Cc2ccccc2)[C@H](Cc2ccccc2)C1)c1ccccc1 (stereo partly specified)							> 1000 nM	1000 nM			51 nM			50%		
CCCCN1CCCN(Cc2ccccc2)[C@@H](Cc2ccccc2)C1			Active	Active	Active	Active	238 nM	> 1000 nM	Active	Active	3.7 nM	inactive	inactive		742 nM	Active
c1ccc(C[C@@H]2CN(Cc3ccccc3)CCCN2Cc2ccccc2)cc1		Active	Active	Active	Active	Active	514 nM	> 1000 nM	Active	Active	80 nM	Active	Active			
c1ccc2c(c1)CCCC2CCCCN1CCN(C2CCCCC2)CC1 (stereo unspecified)	14.6 nM															
c1ccc(CCN2CCCN(Cc3ccccc3)[C@@H](Cc3ccccc3)C2)cc1		Active	Active	Active	Active	Active	426 nM	> 1000 nM	Active	Active	40 nM	Active	Active			
COc1ccc(CN2CCCN(Cc3ccccc3)[C@H](Cc3ccccc3)C2)cc1		Active	Active	Active	Active	Active	426 nM	> 1000 nM	Active	Active	42 nM	inactive	Active			

Reference: ChEMBL document CHEMBL4043136, “Chiral-pool synthesis of 1,2,4-trisubstituted 1,4-diazepanes as novel σ1 receptor ligands” (Bioorg Med Chem, 2017)
